{"source": "paper PMC6685951", "about": "“Migration of Bacteriocins Across Gastrointestinal Epithelial and Vascular Endothelial Cells, as Determined Using In Vitro Simulations” (Scientific Reports, 2019)", "key": {"[1]": {"settings": "in vivo, po; cited from earlier work"}, "L. monocytogenes EGDe [2]": {"system": "L. monocytogenes EGDe", "format": "cell-based, Listeria monocytogenes", "settings": "EGDe, 18 h", "experimental": "The BCA assay was used according to the manufactures instructions to determine the concentration of the peptides. The MIC of the peptides was determined using a microtiter plate. Briefly, L. monocytogenes EGDe was inoculated into Listeria enrichment broth (LEB) and incubated overnight at 37 °C. The culture was inoculated into fresh LEB and incubated until an OD600 of 0.1 was reached. A series of peptide concentrations was prepared and 50 µL of each added per well, followed by the addition of 150 µL culture. The controls were ddH2O containing 0.1% (v/v) TFA with 150 µL culture or media. Microtiter plates were incubated at 37 °C and OD600 readings were taken at T0, T5 and T18 (hours). The MIC was determined as the lowest peptide concentration required to inhibit the growth of L. monocytogenes EGDe after 18 h."}, "L. monocytogenes EGDe [3]": {"system": "L. monocytogenes EGDe", "test": "Antimicrobial activity of NHS-fluorescein labelled versus unlabelled peptides (zone sizes)", "format": "cell-based, Listeria monocytogenes", "settings": "50 µM, 20 µL spotted on LEB agar seeded with L. monocytogenes EGDe, overnight 37 °C", "experimental": "HPLC purified stock solutions of nisin A, plantaricin 423 and bacST4SA were prepared by dissolving the peptides in sterile ultrapure water. Immediately before conjugating NHS-fluorescein to the peptides, a stock solution of NHS-fluorescein was prepared by dissolving 1 mg of reagent in 100 µL DMF. The amount of NHS-fluorescein to be added to each peptide was calculated using the Eqs (2) and (3):2 mLpeptide×mgpeptide/mLpeptide×mmolpeptide/mgpeptide×15mmolNHS/mmolpeptide=mmolNHS 3 mmolNHS×473.4(MWofNHS)/mmolNHS×100µLDMF/1mg=µLNHS\nThe calculated concentration of NHS-fluorescein was added to the peptides and incubated on ice for 2 h. Non-reacted NHS-fluorescein was removed by Sep-Pak C18 column chromatography. Plantaricin 423 and bacST4SA were eluted with 60% acetonitrile containing 0.1% TFA and nisin A with 40% acetonitrile containing 0.1% TFA. Peptides were freeze dried and resuspended in sterile ultrapure water. Concentrations of the labelled peptides were determined with the BCA assay and diluted to 50 µM. Labelled peptides were filtered through a 0.45 µm HVLP membrane and spotted (20 µL) onto LEB agar seeded with 1% L. monocytogenes EGDe (OD600 0.1). Plates were incubated overnight at 37 °C and the fluorescent peptides visualised under a UVP 3UV Ultraviolet Lamp. Inhibition zones were measured using ImageJ software and compared to those of non-labelled peptides."}}, "note": "Bridges are numbered along the chain shown (N, C = ends). Where no end group is shown, it is not given here.", "data": [{"compound": "CC1(C)S[C@@H]2[C@H](NC(=O)[C@H](N)c3ccc(O)cc3)C(=O)N2[C@H]1C(=O)O", "note": "[Amoxicillin]", "values": [{"measurement": "bioavailability", "setting": "[1]", "value": "74-92%"}]}, {"compound": "O=C(N[C@H](CO)[C@H](O)c1ccc([N+](=O)[O-])cc1)C(Cl)Cl", "note": "[Chloramphenicol]", "values": [{"measurement": "time to peak blood levels", "setting": "[1]", "value": "≤ 2", "unit": "h"}]}, {"compound": "CC1(C)S[C@@H]2[C@H](NC(=O)COc3ccccc3)C(=O)N2[C@H]1C(=O)O", "note": "[penicillin V]", "values": [{"measurement": "bioavailability", "setting": "[1]", "value": "60-70%"}]}, {"compound": "KYYGNGVSCNKKGCSVDWGKAIGIIGNNSAANLATGGAAGWKS (disulfide 9-14) [bacST4SA]", "values": [{"measurement": "MIC", "setting": "L. monocytogenes EGDe [2]", "value": 10, "unit": "µM"}, {"measurement": "decrease in activity of labelled versus unlabelled peptide (antimicrobial zone sizes)", "setting": "L. monocytogenes EGDe [3]", "value": 21, "unit": "%"}]}]}
